pEC50: −log10 of the molar value. Where two headings read alike, the source gives them in different places.
Target: T1, F508delCFTR (Homo sapiens, UniProt P13569, DEL508-508)
T1 construct: expressed in transfected cells; host or cells: CFBE41o- human lung-derived epithelial cells (CFBE4lo-F508delCFTR-HRP), doxycycline-inducible
Experiment: Cell Surface Expression-Horse Radish Peroxidase (CSE-HRP) Assay;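 for Maximum % activity (with co-corrector): co-corrector and positive control are both the same reference corrector at 2 µM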;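 for Maximum % activity (without co-corrector): percent of the 2 µM on-plate positive control corrector response above DMSO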
Assay type: cell-based
Conditions: for Emax / Maximum % activity (with co-corrector): maximum at any tested concentration, normalized to on-plate positive control; for Emax: read-out: Maximum % activity (without co-corrector)

[1] = test compound without co-corrector
[2] = test compound without co-corrector, read-out: EC50 (without co-corrector)
[3] = with co-corrector (2 μM of 3-[(2R,4R)-4-({[1-(2,2-difluoro-1,3-benzodioxol-5-yl)cyclopropyl]carbonyl}amino)-7-methoxy-3,4-dihydro-2H-chromen-2-yl]benzoic acid)
[4] = with co-corrector (2 μM of 3-[(2R,4R)-4-({[1-(2,2-difluoro-1,3-benzodioxol-5-yl)cyclopropyl]carbonyl}amino)-7-methoxy-3,4-dihydro-2H-chromen-2-yl]benzoic acid), read-out: EC50 (with co-corrector)
[5] = CSE-HRP, test compound without co-corrector, read-out: EC50 (without co-corrector)
[6] = CSE-HRP, with co-corrector (2 μM of 3-[(2R,4R)-4-({[1-(2,2-difluoro-1,3-benzodioxol-5-yl)cyclopropyl]carbonyl}amino)-7-methoxy-3,4-dihydro-2H-chromen-2-yl]benzoic acid), read-out: EC50 (with co-corrector)
[7] = CSE-HRP, with co-corrector (2 μM)

T1 sequence (P13569 with tags, fused parts or gaps DEL508-508): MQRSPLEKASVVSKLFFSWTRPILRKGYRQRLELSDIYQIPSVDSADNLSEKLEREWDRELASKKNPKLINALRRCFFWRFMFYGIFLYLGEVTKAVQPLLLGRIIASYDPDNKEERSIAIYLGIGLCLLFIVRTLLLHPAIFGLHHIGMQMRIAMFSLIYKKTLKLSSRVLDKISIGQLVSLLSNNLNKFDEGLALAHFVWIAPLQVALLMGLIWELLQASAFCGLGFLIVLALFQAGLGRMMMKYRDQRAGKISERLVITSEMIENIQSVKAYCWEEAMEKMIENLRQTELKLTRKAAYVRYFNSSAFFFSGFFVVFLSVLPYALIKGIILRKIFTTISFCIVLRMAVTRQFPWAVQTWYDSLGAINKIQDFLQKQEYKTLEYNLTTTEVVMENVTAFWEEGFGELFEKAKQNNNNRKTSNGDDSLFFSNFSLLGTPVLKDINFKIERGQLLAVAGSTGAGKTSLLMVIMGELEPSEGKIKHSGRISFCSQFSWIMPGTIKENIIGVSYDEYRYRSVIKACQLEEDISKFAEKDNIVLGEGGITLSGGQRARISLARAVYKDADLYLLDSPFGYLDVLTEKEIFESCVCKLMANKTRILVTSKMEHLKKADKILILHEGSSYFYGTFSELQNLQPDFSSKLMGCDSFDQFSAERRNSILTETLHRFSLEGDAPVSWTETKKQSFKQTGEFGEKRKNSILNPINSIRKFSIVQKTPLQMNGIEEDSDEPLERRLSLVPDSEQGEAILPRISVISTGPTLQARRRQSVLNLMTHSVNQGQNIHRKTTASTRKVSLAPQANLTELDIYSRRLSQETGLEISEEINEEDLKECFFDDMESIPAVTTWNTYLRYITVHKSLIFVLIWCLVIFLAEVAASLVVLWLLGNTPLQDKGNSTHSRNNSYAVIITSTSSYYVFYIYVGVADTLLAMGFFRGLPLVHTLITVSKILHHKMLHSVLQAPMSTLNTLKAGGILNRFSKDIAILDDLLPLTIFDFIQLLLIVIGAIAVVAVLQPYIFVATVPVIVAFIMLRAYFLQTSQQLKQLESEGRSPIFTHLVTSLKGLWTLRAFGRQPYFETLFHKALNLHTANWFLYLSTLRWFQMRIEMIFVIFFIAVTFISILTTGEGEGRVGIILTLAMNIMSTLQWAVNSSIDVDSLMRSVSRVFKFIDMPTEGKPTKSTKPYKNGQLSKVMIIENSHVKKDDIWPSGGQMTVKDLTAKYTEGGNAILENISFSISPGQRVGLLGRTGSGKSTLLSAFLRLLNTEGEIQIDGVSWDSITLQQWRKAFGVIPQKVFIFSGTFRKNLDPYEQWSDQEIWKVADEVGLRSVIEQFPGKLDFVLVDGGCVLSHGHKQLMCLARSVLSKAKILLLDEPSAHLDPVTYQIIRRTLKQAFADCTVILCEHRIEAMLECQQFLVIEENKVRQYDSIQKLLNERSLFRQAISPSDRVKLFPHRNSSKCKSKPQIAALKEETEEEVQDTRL

Emax [1] [%]	pEC50 [2]	Maximum % activity (with co-corrector) [3]	pEC50 [4]	pEC50 [5]	pEC50 [6]	Maximum % activity (with co-corrector) [7]	Emax (CSE-HRP, without co-corrector) [%]	Maximum % activity (with co-corrector) (with co-corrector (2 μM))	Emax (without co-corrector) [%]	SMILES
100 to 200	5.00 to 6.00	+++ (≥350)	5.00 to 6.00							COc1nc(C2CCC2)ccc1CN[C@H]1[C@H](C(C)(C)C)[C@@H](C(=O)O)N(C(=O)OC(C)C)[C@H]1c1cccnc1N(C)C [II-548]
100 to 200	5.00 to 6.00	+++ (≥350)	5.00 to 6.00							COc1cc(C(F)(F)F)ccc1CN[C@H]1[C@H](C(C)(C)C)[C@@H](C(=O)O)N(C(=O)CC(C)C)[C@H]1c1ccccc1 [II-558]
				5.00 to 6.00	5.00 to 6.00	+++ (≥350)	> 200			COc1ccc(C(C)C)cc1CN[C@@H]1[C@@H](C(C)(C)C)[C@H](C(=O)O)N(C(=O)OC(C)C)[C@@H]1c1ccccc1 (racemic) [II-44]
	5.00 to 6.00		5.00 to 6.00					+++ (≥350)	100 to 200	COc1ncc(C2CCC2)cc1CN[C@H]1[C@H](C(C)(C)C)[C@@H](C(=O)O)N(C(=O)C2C3CCCC32)[C@H]1c1cccnc1OC (some centres unmarked) [Example I-243]
< 100	5.00 to 6.00	++ (≥150 and <350)	5.00 to 6.00							COc1ncc(C(F)(F)F)cc1N[C@H]1[C@H](C(C)(C)C)[C@@H](C(=O)O)N(C(=O)C2CCCC(F)(F)C2)[C@H]1c1cccnc1N(C)C (some centres unmarked) [II-488]
				5.00 to 6.00	5.00 to 6.00	+++ (≥350)	100 to 200			COc1ccc(C(C)(C)C)cc1CN[C@H]1[C@H](C(C)(C)C)[C@@H](C(=O)O)N(C(=O)CC2CCC(C)(C)OC2)[C@H]1c1ccccc1 (some centres unmarked) [II-176]
100 to 200	5.00 to 6.00	+++ (≥350)	5.00 to 6.00							COc1ccc(C2(C#N)CC2)cc1CN[C@H]1[C@H](C(C)(C)C)[C@@H](C(=O)O)N(C(=O)C2CCCCC2)[C@H]1c1ccccc1 [II-400]
> 200	> 6.00		> 6.00					+++ (≥350)		COc1ccc(C(C)(C)C)cc1CN[C@H]1[C@H](C(C)(C)C)[C@@H](C(=O)O)N(C(=O)C2CCC(C)CC2)[C@H]1c1ccccc1 (some centres unmarked) [III-174]
				> 6.00	> 6.00	+++ (≥350)	100 to 200			COc1ncc(Br)cc1CN[C@H]1[C@H](C(C)(C)C)[C@@H](C(=O)O)N(C(=O)C2CCCCC2)[C@H]1c1ccccc1 [II-158]
				5.00 to 6.00	5.00 to 6.00	++ (≥150 and <350)	< 100			COc1ncc(C2CCC2)cc1CN[C@H]1[C@H](C(C)(C)C)[C@@H](C(=O)O)N(C(=O)C2CCC2)[C@H]1c1ccccc1C(F)(F)F [Example I-278]
	5.00 to 6.00		5.00 to 6.00					+++ (≥350)	100 to 200	COc1ccc(Cl)cc1CN[C@H]1[C@H](C(C)(C)C)[C@@H](C(=O)O)N(C(=O)C2CCCCC2)[C@H]1c1ccccc1OC [Example I-57]
> 200	5.00 to 6.00	+++ (≥350)	5.00 to 6.00							COc1ccc(S(F)(F)(F)(F)F)cc1CN[C@H]1[C@H](C(C)(C)C)[C@@H](C(=O)O)N(C(=O)OC(C)C)[C@H]1c1ccccc1 [II-535]
				5.00 to 6.00	5.00 to 6.00	++ (≥150 and <350)	< 100			COc1ccc(C(F)(F)F)cc1CN[C@H]1[C@H](C(C)(C)C)[C@@H](C(=O)O)N(S(=O)(=O)c2ccccc2)[C@H]1c1ccccc1 [II-155]
> 200	5.00 to 6.00	+++ (≥350)	> 6.00							COc1ccc(C(C)(C)C)cc1CN[C@H]1[C@H](C(C)(C)C)[C@@H](C(=O)O)N(C(=O)C(C)Oc2ccccc2F)[C@H]1c1ccccc1 (some centres unmarked) [II-324]
100 to 200	5.00 to 6.00	+++ (≥350)	> 6.00							COc1ncc(C(F)(F)F)cc1CN[C@H]1[C@H](C(C)(C)C)[C@@H](C(=O)O)N(C(=O)[C@H](C)OC)[C@H]1c1ccccc1C(C)C [II-590]
	5.00 to 6.00		5.00 to 6.00					++ (≥150 and <350)	< 100	CC(C)(C)[C@H]1[C@H](NCc2ccc(F)cc2OCC2CC2)[C@H](c2ccccc2)N(C(=O)C2CCCCC2)[C@@H]1C(=O)O [Example I-50]
	5.00 to 6.00		5.00 to 6.00					+++ (≥350)	> 200	COc1ccc(C(C)(C)C)cc1CN[C@H]1[C@H](C(C)(C)C)[C@@H](C(=O)O)N(C(=O)OC(C)C)[C@H]1c1cccnc1N1CCC1 [Example 99, (2S,3S,4S,5S)-5-[2-(azetidin-1-yl)pyridin-3-yl]-3-tert-butyl-4-{[(5-tert-butyl-2-methoxyphenyl)methyl]amino}-1-{[(propan-2-yl)oxy]carbonyl}pyrrolidine-2-carboxylic acid]
	5.00 to 6.00		5.00 to 6.00					+++ (≥350)	100 to 200	COc1ccc(C(C)(C)C)cc1CN[C@H]1[C@H](C(C)(C)C)[C@@H](C(=O)O)N(C(=O)c2cnn(C(C)(C)C)c2C(C)C)[C@H]1c1ccccc1 [Example I-145]
	5.00 to 6.00		5.00 to 6.00					+++ (≥350)	> 200	COc1ccc(C(C)(C)C)cc1CN[C@H]1[C@H](C(C)(C)C)[C@@H](C(=O)O)N(C(=O)[C@@H]2CCCCO2)[C@H]1c1cccnc1N(C)C [Example 18, (2S,3S,4S,5S)-3-tert-butyl-4-{[(5-tert-butyl-2-methoxyphenyl)methyl]amino}-5-[2-(dimethylamino)pyridin-3-yl]-1-[(2S)-oxane-2-carbonyl]pyrrolidine-2-carboxylic acid]
100 to 200	5.00 to 6.00	+++ (≥350)	5.00 to 6.00							COc1ncc(C2CCC2)cc1CN[C@H]1[C@H](C(C)(C)C)[C@@H](C(=O)O)N(C(=O)[C@@H]2CCCCO2)[C@H]1c1ccccc1F [II-531]
	5.00 to 6.00		5.00 to 6.00					+++ (≥350)	< 100	COc1ccc(C(C)(C)C)cc1CN[C@H]1[C@H](C(C)(C)C)[C@@H](C(=O)O)N(C(=O)c2cccnc2)[C@H]1c1ccccc1 [Example I-64]
				5.00 to 6.00	5.00 to 6.00	+++ (≥350)	100 to 200			COc1ccc(-c2cncc(F)c2)cc1CN[C@H]1[C@H](C(C)(C)C)[C@@H](C(=O)O)N(C(=O)C2CCCCC2)[C@H]1c1ccccc1 [II-287]
				> 6.00	> 6.00	+++ (≥350)	100 to 200			COc1ccc(C(C)(C)C)cc1CN[C@H]1[C@H](C(C)(C)C)[C@@H](C(=O)O)N(C(=O)c2onc3ccccc23)[C@H]1c1ccccc1 [II-231]
> 200	5.00 to 6.00	+++ (≥350)	5.00 to 6.00							COc1ccc(OC(F)(F)F)cc1CN[C@H]1[C@H](C(C)(C)C)[C@@H](C(=O)O)N(C(=O)OC(C)C)[C@H]1c1cccnc1N(C)C [II-552]
> 200	> 6.00	+++ (≥350)	> 6.00							COc1ccc(C(C)(C)C)cc1CN[C@H]1[C@H](C(C)(C)C)[C@@H](C(=O)O)N(C(=O)C2CCCCC2)[C@H]1c1ccccc1C [II-576]
> 200	5.00 to 6.00	+++ (≥350)	5.00 to 6.00							CCC(C)(O)CC(=O)N1[C@H](C(=O)O)[C@@H](C(C)(C)C)[C@H](NCc2cc(C(C)(C)C)ccc2OC)[C@@H]1c1ccccc1 (some centres unmarked) [II-371]
				5.00 to 6.00	5.00 to 6.00	+++ (≥350)	> 200			COc1ccc(C(C)(C)C)cc1CN[C@H]1[C@H](C(C)(C)C)[C@@H](C(=O)O)N(C(=O)Cc2cccc(O)c2)[C@H]1c1ccccc1 [II-196]
	5.00 to 6.00		> 6.00					+++ (≥350)	> 200	COc1ncc(C2CCC2)cc1CN[C@H]1[C@H](C(C)(C)C)[C@@H](C(=O)O)N(C(=O)[C@@H]2CCCO2)[C@H]1c1ccccc1C(C)C [Example 89, (2S,3S,4S,5S)-3-tert-butyl-4-{[(5-cyclobutyl-2-methoxypyridin-3-yl)methyl]amino}-1-[(2S)-oxolane-2-carbonyl]-5-[2-(propan-2-yl)phenyl]pyrrolidine-2-carboxylic acid]
100 to 200	> 6.00	+++ (≥350)	> 6.00							COc1ncc(C(C)(C)C)cc1CN[C@H]1[C@H](C(C)(C)C)[C@@H](C(=O)O)N(C(=O)C2CCCCC2)[C@H]1c1ccccc1F [II-351]
